Columns and labels:
Type in all cases: cell-based
NCI-H929 cells [1] = assay: Antiproliferative effect alone and in combination with dexamethasone against NCI-H929 cells; conditions: 72 h, read-out: IC50
Procedure: (§1) MOLM-13 cells in the logarithmic growth phase were diluted in a medium RPMI+[…], and NCI-H929 cells were diluted in a medium RPMI+10% FBS. The cells were plated at 4,000 cells/well in 96-well whole black plates (WHB) with 50 μL/well. After plating, the plates were incubated in an incubator at 5% CO2 and 37° C. for 24 h before the compounds were added. The compounds were prepared into a 10 mM stock solution in DMSO and diluted in a culture medium to the desired concentrations (a final DMSO concentration of 0.2%). 50 μL of the compound dilutions at final concentrations of 10,000, 3,333.33, 1,111.11, 370.37, 123.46, 41.15, 13.72, 4.57, 1.52, and 0 nM were added to the 96-well plates containing the cells, that is, each compound was serially diluted to 10 concentrations in duplicate. The plates were incubated at 5% CO2 and 37° C. for 72 h. When pharmaceutical partners were used, the concentrations of azacitidine and dexamethasone were kept at 200 nM and 500 nM respectively, and the compounds were serially three-fold diluted from 10,000 nM. After the incubation was complete, the plates were equilibrated at room temperature for 30 min. CellTiter-Glo® Reagent (Promega G7573) was added at 100 μL/well. The plates were shaken for 12 min on a microplate shaker. The luminescence value was measured at room temperature by the GloMax navigator (Promega GM2010). The IC50 values were calculated using the GraphPad Prism 7 software with the 0 nM control group as 0% inhibition.

MV-4-11 cells = assay: Antiproliferative activity against MV-4-11 cells (CellTiter-Glo, 72 h); conditions: Homo sapiens, MV4-11; MV-4-11 cells, 72 h; read-out: Antiproliferative activity IC50
Outline: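 MV-4-11 cells in RPMI + 10% FBS plated at 5,000 cells/well and pre-incubated 24 h at 37 °C, 5% CO2. Compounds were then added (final DMSO 0.2%) and cells incubated 72 h. Viability was read by CellTiter-Glo luminescence after 30 min equilibration at room temperature.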

AML-2 cells = assay: Antiproliferative activity against various tumor cells: AML-2; conditions: AML-2 cells, 72 h; read-out: Antiproliferative activity IC50 AML-2
Procedure: (§2) U937, NCI-H929, AML-2, and MOLM-13 cells in the logarithmic growth phase were diluted in media RPMI+10% FBS, RPMI+10% FBS, MEMα+20% FBS, RPMI+20% FBS, respectively, and plated at 4,000 cells/well in 96-well whole black plates (WHB) with 50 μL/well. After plating, the plates were incubated in an incubator at 5% CO2 and 37° C. for 24 h before the compounds were added. The compounds were prepared into a 10 mM stock solution in DMSO and diluted in a culture medium to the desired concentrations (a final DMSO concentration of 0.2%). […] The plates were incubated at 5% CO2 and 37° C. for 72 h. After the incubation was complete, the plates were equilibrated at room temperature for 30 min. CellTiter-Glo® Reagent (Promega G7573) was added at 100 μL/well. The plates were shaken for 12 min on a microplate shaker. The luminescence value was measured at room temperature by the GloMax navigator (Promega GM2010).

MOLM-13 cells [2] = assay: Antiproliferative activity against various tumor cells: MOLM-13; conditions: Homo sapiens; MOLM-13 cells, 72 h; read-out: Antiproliferative activity IC50 MOLM-13
Procedure: as §2

GSPT1 protein = target: T1, GSPT1 protein (Homo sapiens, UniProt P15170); assay: Degradation of GSPT1 protein in NB-4 cells (Western blot); conditions: NB-4 cells, compound 1 μM, 6 h; read-out: GSPT1 degradation
T1 construct: The whole cell lysate was prepared using a RIPA lysis buffer; endogenous in cells; host or cells: NB-4 cells
T1 sequence (P15170 whole entry): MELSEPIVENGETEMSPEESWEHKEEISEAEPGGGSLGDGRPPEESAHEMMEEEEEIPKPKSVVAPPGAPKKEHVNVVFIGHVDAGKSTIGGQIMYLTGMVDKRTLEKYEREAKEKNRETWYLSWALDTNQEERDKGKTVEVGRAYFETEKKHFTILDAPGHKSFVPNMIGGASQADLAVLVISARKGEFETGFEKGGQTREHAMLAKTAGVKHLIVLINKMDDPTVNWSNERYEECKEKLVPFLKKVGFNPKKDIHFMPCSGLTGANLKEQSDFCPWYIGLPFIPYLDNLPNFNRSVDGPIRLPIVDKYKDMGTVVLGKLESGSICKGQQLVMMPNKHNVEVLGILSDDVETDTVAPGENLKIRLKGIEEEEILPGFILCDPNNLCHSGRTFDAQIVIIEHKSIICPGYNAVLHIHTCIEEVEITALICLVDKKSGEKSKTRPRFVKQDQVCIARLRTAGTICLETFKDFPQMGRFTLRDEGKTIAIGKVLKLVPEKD
Outline: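 NB-4 cells treated with compounds at 1 μM for 6 h at 37 °C, 5% CO2, with DMSO control. RIPA whole-cell lysates, BCA-normalized, were run on 4-20% SDS-PAGE and immunoblotted for GSPT1 protein.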

NCI-H929 cells [3] = assay: Antiproliferative activity against various tumor cells: NCI-H929; conditions: Homo sapiens; NCI-H929 cells, 72 h; read-out: Antiproliferative activity IC50 NCI-H929
Procedure: as §2

U937 cells = assay: Antiproliferative activity against various tumor cells: U937; conditions: Homo sapiens, U-937; U937 cells, 72 h; read-out: Antiproliferative activity IC50 U937
Procedure: as §2

c-Myc = target: T2, c-Myc (Homo sapiens, UniProt P01106); assay: Degradation of c-MYC protein in HL-60 cells (Western blot); conditions: 4 h
T2 construct: The whole cell lysate was prepared using a RIPA lysis buffer; endogenous in cells; host or cells: HL-60 cells
T2 sequence (P01106 whole entry): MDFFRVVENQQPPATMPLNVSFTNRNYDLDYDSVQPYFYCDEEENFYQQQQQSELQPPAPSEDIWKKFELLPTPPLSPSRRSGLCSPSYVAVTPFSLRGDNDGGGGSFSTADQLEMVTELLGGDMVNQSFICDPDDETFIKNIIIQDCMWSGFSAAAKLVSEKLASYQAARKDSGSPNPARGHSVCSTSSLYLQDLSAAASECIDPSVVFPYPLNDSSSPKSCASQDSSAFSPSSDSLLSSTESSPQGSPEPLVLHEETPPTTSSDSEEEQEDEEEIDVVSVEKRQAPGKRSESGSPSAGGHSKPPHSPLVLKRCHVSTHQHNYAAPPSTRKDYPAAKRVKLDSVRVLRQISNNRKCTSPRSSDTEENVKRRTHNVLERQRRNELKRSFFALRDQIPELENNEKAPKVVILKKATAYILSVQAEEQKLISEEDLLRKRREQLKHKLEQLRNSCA
Procedure: (§3) […] of DMSO and the compounds were added, and the mixture was incubated in an incubator at 5% CO2 and 37° C. for 4 h. The cells were centrifuged, and the culture medium was discarded. PBS was added for washing and then discarded. The whole cell lysate was prepared using a RIPA lysis buffer containing a protease inhibitor cocktail and a phosphatase inhibitor, and incubated on ice for 30 min. The mixture was centrifuged, and the cell debris was discarded. The whole cell lysate supernatant was collected and transferred to a fresh EP tube. Samples were prepared using a loading buffer after a BCA protein assay. The samples were incubated in a metal bath at 100° C. for 10 min. The samples were electrophoretically separated from proteins on a 4-20% precast gel (SDS-PAGE gel), transferred to a PVDF membrane, blocked with 5% NFDM/TBST for 1 h at room temperature, co-incubated overnight at 4° C. with the primary antibody, and co-incubated for 2 h at room temperature with the secondary antibody on the next day. The signals were detected on the […]™ imaging system.

CK1α = target: T3, CK1α (Homo sapiens, UniProt P48729); assay: Degradation of CK1α protein in HL-60 cells (Western blot); conditions: 4 h
T3 construct: The whole cell lysate was prepared using a RIPA lysis buffer; endogenous in cells; host or cells: HL-60 cells
T3 sequence (P48729 whole entry): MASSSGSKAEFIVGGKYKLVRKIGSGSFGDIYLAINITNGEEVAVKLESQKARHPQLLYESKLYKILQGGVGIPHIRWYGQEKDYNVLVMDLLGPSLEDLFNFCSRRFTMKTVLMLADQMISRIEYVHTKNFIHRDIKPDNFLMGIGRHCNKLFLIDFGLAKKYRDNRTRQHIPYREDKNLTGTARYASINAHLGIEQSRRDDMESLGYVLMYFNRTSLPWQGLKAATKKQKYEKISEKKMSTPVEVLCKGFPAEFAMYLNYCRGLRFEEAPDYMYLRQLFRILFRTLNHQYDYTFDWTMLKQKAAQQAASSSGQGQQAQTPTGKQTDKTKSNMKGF
Procedure: as §3

MOLM-13 cells [4] = assay: Antiproliferative effect alone and in combination with azacitidine against MOLM-13 cells
Procedure: as §1

[5] = in combination with 500 nM dexamethasone

| IC50 (MV-4-11 cells) [nM] | IC50 (AML-2 cells) [nM] | IC50 (MOLM-13 cells [2]) [nM] | inhibition at 1 µM (GSPT1 protein) [%] | IC50 (NCI-H929 cells [3]) [nM] | IC50 (U937 cells) [nM] | SMILES | other results |
| --- | --- | --- | --- | --- | --- | --- | --- |
|  |  |  |  |  |  | C[C@@H]1C[C@H]2[C@@H]3CCC4=CC(=O)C=C[C@]4(C)[C@@]3(F)[C@@H](O)C[C@]2(C)[C@@]1(O)C(=O)CO [Dexamethasone] | IC50 (NCI-H929 cells [1]; Homo sapiens, compound alone): > 10000 nM |
| < 1 | 1 to 10 | < 1 | > 80 | < 1 | < 1 | O=C1CCC(N2Cc3c(ccc(CNC(=O)c4ccc(C(=O)c5ccccc5)cc4)c3F)C2=O)C(=O)N1 (stereo not drawn) [FDAB-100] |  |
| < 1 |  |  | > 80 |  |  | CCCCCCCCCCCCSC(=S)SC(C)(C#N)CCC(=O)NCc1ccc2c(c1F)CN(C1CCC(=O)NC1=O)C2=O (stereo not drawn) [FDAB-164] | c-Myc degradation (c-Myc; 10 nM): D (D denotes a percentage of degradation less than 25%); c-Myc degradation (c-Myc; 100 nM): C (C denotes a percentage of degradation less than 500% but not less than 250%); c-Myc degradation (c-Myc; 1000 nM): C (C denotes a percentage of degradation less than 500% but not less than 250%); CK1α degradation (CK1α; 10 nM): D (D denotes a percentage of degradation less than 25%); CK1α degradation (CK1α; 100 nM): C (C denotes a percentage of degradation less than 500% but not less than 250%); CK1α degradation (CK1α; 1000 nM): C (C denotes a percentage of degradation less than 500% but not less than 250%) |
| 1 to 10 | 1 to 10 | 1 to 10 | > 80 | 1 to 10 | 1 to 10 | O=C(CCc1cccc(F)c1)NCc1ccc2c(c1F)CN(C1CCC(=O)NC1=O)C2=O (stereo not drawn) [FDAB-137] |  |
|  |  |  |  |  |  | Nc1cccc2c1CN(C1CCC(=O)NC1=O)C2=O (stereo not drawn) [Lenalidomide] | IC50 (NCI-H929 cells [1]; [5]): 774 nM; IC50 (NCI-H929 cells [1]; Homo sapiens, compound alone): 2180 nM |
| < 1 | 1 to 10 | < 1 | > 80 | < 1 | 1 to 10 | O=C(/C=C/c1ccc(Cl)cc1)NCc1ccc2c(c1F)CN(C1CCC(=O)NC1=O)C2=O (stereo not drawn) [FDAB-142] |  |
| < 1 | < 1 | < 1 | > 80 | 1 to 10 | < 1 | CC(C)(C)c1ccc(C(=O)NCc2ccc3c(c2F)CN(C2CCC(=O)NC2=O)C3=O)cc1 (stereo not drawn) [FDAB-94] |  |
| 1 to 10 | 1 to 10 | 1 to 10 | > 80 | 10 to 100 | 1 to 10 | Cc1cc(C(=O)NCc2ccc3c(c2F)CN(C2CCC(=O)NC2=O)C3=O)cc(C)c1C (stereo not drawn) [FDAB-92] |  |
| 10 to 100 | 10 to 100 | 10 to 100 | > 80 | 100 to 1000 | 10 to 100 | O=C1CCC(N2Cc3c(ccc(CNC(=O)C(F)(F)c4ccc(Cl)cc4)c3F)C2=O)C(=O)N1 (stereo not drawn) [FDAB-124] |  |
| < 1 | 1 to 10 | < 1 | > 80 | < 1 | 1 to 10 | O=C(C#Cc1ccccc1)NCc1ccc2c(c1F)CN(C1CCC(=O)NC1=O)C2=O (stereo not drawn) [FDAB-144] |  |
| 1 to 10 | 10 to 100 | 10 to 100 | 50 to 80 | 1 to 10 | 10 to 100 | O=C1CCC(N2Cc3c(ccc(CNC(=O)c4cc5cc(Cl)ccc5o4)c3Cl)C2=O)C(=O)N1 (stereo not drawn) [FDAB-68] |  |
|  |  |  |  |  |  | Nc1cccc2c1C(=O)N(C1CCC(=O)NC1=O)C2=O (stereo not drawn) [Pomalidomide] | IC50 (NCI-H929 cells [1]; [5]): 22.2 nM; IC50 (NCI-H929 cells [1]; Homo sapiens, compound alone): 243 nM |
| < 1 | < 1 | < 1 | > 80 | < 1 | < 1 | O=C(C#Cc1ccc(-c2ccccc2)cc1)NCc1ccc2c(c1F)CN(C1CCC(=O)NC1=O)C2=O (stereo not drawn) [FDAB-147] |  |
| 1 to 10 | 10 to 100 | 10 to 100 | > 80 | 1 to 10 | 1 to 10 | O=C1CCC(N2Cc3c(ccc(CNC(=O)C4CC5(CCC5)C4)c3F)C2=O)C(=O)N1 (stereo not drawn) [FDAB-156] |  |
|  |  |  |  |  |  | Nc1ncn([C@@H]2O[C@H](CO)[C@@H](O)[C@H]2O)c(=O)n1 [Azacitidine, reference compound] | antiproliferative activity against MOLM-13 cells at fixed concentration (MOLM-13 cells [4]; 200 nM): no significant antiproliferative activity; IC50 (MOLM-13 cells [4]; Homo sapiens, MOLM-13 cells, 72 h, compound alone): 751 nM |

Reference: patent US20250282746A1, “HALOGEN-SUBSTITUTED ISOINDOLINE COMPOUND AND USE THEREOF” (CHENGDU FENDI PHARMACEUTICAL CO., LTD., priority 2022, published 2025)
